Experimental findings from patent US7626044B2, “Triptolide derivatives and their uses” (priority 2002, dated 2009) are described below.

The subject of data set [1] is B lymphocyte. Kind of data set: LPS induced B-lymphocyte proliferation ([3H]thymidine). The class given is cell-based, mouse. The settings on record: control 87373. As for the experimental part: (§1) Mice were sacrificed by cervical dislocation, and spleens were collected under sterile conditions then teased through a nylon mesh. Erythrocytes were lysed. Cells were washed and resuspended at 5×10^6/ml in RPMI-1640 media containing 10% FBS. For one 96 well plate assay, 100 pt of cells, 50 μl of sample and 50 μl of ConA/LPS were added into each well with the final volume 200 μl. The control wells were set up with 50 μl of RPMI-1640 media instead of ConA/LPS.
(§2) Plates were incubated for 48 h (ConA) or 60 h (LPS), respectively, at 37° C., 5% CO2 in a humidified incubator. In the last 8 h of incubation, 25 μl (1.9×10^10 Bq) of [^3H]thymidine was added. After plates were incubated for 48 h, the plates (ConA) were stored at −20° C., then after another 12 h, the plates (LPS) were stored at −20° C.
(§3) At the end of incubation, pulsed cells were harvested on a glass filter using a cell harvester ([…]96®, TOMTEC) and allowed to dry. Incorporation of radioactive thymidine was determined by using liquid Scintillation and Luminescence Counters (MicroBeta Trilux®, PerkinElmer).

Data set [2] concerns lymphocyte. Description: MTT cytotoxic assay. The class given is cell-based, mouse. As to conditions: control 0.337. Here is the method: Mice were sacrificed by cervical dislocation, and spleens were collected under sterile conditions then teased through a nylon mesh. Erythrocytes were lysed. Cells were washed and resuspended at 5×10^6/ml in RPMI-1640 media supplemented with 10% FBS.
For one 96 well plate assay, 90 μl of cells, 45 μl of sample and 45 μl of RPMI-1640 media with 10% FBS were added into each well with the final volume 180 μl. The negative control wells (containing 90 μl of RPMI-1640 media with 10% FBS and 90 pt of cells), blank control (180 μl of RPMI-1640 media with 10% FBS) were also performed. Incubate plate for 48 hours at 37° C., 5% CO2 in a humidified incubator. 18 μl of MTT solution (5 mg/ml) was added for 6-7 h.
90 μl of MTT lysis solution was added to each well followed by a further incubation at 37° C. for 6-7 h. And the absorbance was measured at 570 nm using a plate reader.

Data set [3] has as its system T lymphocyte. Description: ConA induced T-lymphocyte proliferation ([3H]thymidine). The class given is cell-based, mouse. As to conditions: control 125789. As for the experimental part: as §1, §2, §3
The subject of data set [4] is DNFB-induced mouse DTH response. Description: DNFB-induced mouse delayed type hypersensitivity response (DTH). The class given is in vivo. As to conditions: Table 8, i.p., Balb/c mice, dosage 1000 (mg/kg). Here is the method:
Female Balb/c mice (age of 6-8 wk) were randomly divided into groups and immunized with 20 μl 0.5% DNFB solution in absolute acetone-olive oil (4:1) on each hind foot on day 0 and 1;
7-9 days after the initial immunization, mice were boosted with 10 μl 0.4% DNFB on both sides of the left ear, whereas the right ear was treated with vehicle alone;
Compounds were administered intraperitoneally (i.p.) or orally (p.o.) to the mice 1 h before DNFB booster immunization and 12 h later.
Ear swelling and other indexes were assessed 24-48 h after booster immunization.
Note: Female ICR mice (age of 6-8 wk) were immunized with 0.7% DNFB solution and boosted with 0.6% DNFB solution.

Data set [5] relates to anti-SRBC specific antibodies production by B lymphocytes. It counts as in vivo, mouse. The settings on record: Table 12, positive control given i.p., ICR mice, dosage 4 mg/kg.

Molecules are shown by their SMILES.

Take `CC(C)[C@]12O[C@H]1[C@@H]1O[C@@]13[C@@]1(C)CCC4=C(COC4=O)[C@@]14O[C@H]4[C@@H]1O[C@@]13C2=O` [LLDT-16, (5R, 6S)-5,6-epoxytriptonide]: the melting point was 252 to 254 °C (dec.). Moreover, the “Lymphocyte Proliferation (cpm) B cell” value in data set [1] (10^−6 M) stood at 80768 cpm. In addition, in data set [1] (10^−7 M), the “Lymphocyte Proliferation (cpm) B cell” value is listed as 82285 cpm. In addition, the “Lymphocyte Proliferation (cpm) B cell” value in data set [1] (10^−8 M) is 71877 cpm. Moreover, the “Cytotoxicity OD Value” in data set [2] (10^−6 M) was 0.304. The “Cytotoxicity OD Value” in data set [2] (10^−7 M) was 0.337. Besides, the “Cytotoxicity OD Value” in data set [2] (10^−8 M) worked out at 0.372. Further, the “Lymphocyte Proliferation (cpm) T cell” value in data set [3] (10^−6 M) is given as 76204 cpm. Besides, in data set [3] (10^−7 M), the “Lymphocyte Proliferation (cpm) T cell” value came to 75599 cpm. The “Lymphocyte Proliferation (cpm) T cell” value in data set [3] (10^−8 M) worked out at 89029 cpm.
With `CC(C)C12OC1C1OC13C1(C)CCC4=C(COC4=O)C1=CC1OC13C2O` (stereo not drawn) [LLDT-18, Δ^5,6-dehydrotriptolide], the entries for the “Lymphocyte Proliferation (cpm) B cell” value in data set [1] (10^−6 M), in data set [1] (10^−7 M) and in data set [1] (10^−8 M) were 833 cpm, 75147 cpm and 79808 cpm, respectively. For the same molecule, the “Cytotoxicity OD Value” in data set [2] (10^−6 M) is listed as 0.039; in data set [2] (10^−7 M), 0.295; in data set [2] (10^−8 M), 0.367. Besides, the results for the “Lymphocyte Proliferation (cpm) T cell” value in data set [3] (10^−6 M), in data set [3] (10^−7 M) and in data set [3] (10^−8 M) were 462 cpm, 53513 cpm and 92807 cpm, respectively.
Turning to `CC(C)[C@]12O[C@H]1[C@@H]1O[C@@]13[C@@]1(C)CCC4=C(COC4=O)[C@]1(O)[C@@H](O)[C@@H]1O[C@@]13C2=O` [LLDT-17, cis-(5R, 6S)-5,6-dihydroxytriptonide], the melting point was 266 to 268 °C (dec.). For the same molecule, in data set [1] (10^−6 M), the “Lymphocyte Proliferation (cpm) B cell” value is 82861 cpm. Besides, in data set [1] (10^−7 M), the “Lymphocyte Proliferation (cpm) B cell” value was 76376 cpm. Moreover, the “Lymphocyte Proliferation (cpm) B cell” value in data set [1] (10^−8 M) is 73969 cpm. Besides, the “Cytotoxicity OD Value” in data set [2] (10^−6 M) came out at 0.310. In addition, the “Cytotoxicity OD Value” in data set [2] (10^−7 M) was found to be 0.355. Besides, the “Cytotoxicity OD Value” in data set [2] (10^−8 M) is 0.334. Moreover, in data set [3] (10^−6 M), the “Lymphocyte Proliferation (cpm) T cell” value turned out to be 84825 cpm. Moreover, in data set [3] (10^−7 M), the “Lymphocyte Proliferation (cpm) T cell” value was 67561 cpm. The “Lymphocyte Proliferation (cpm) T cell” value in data set [3] (10^−8 M) was determined as 74069 cpm.
`CC(C)[C@]12O[C@H]1[C@@H]1O[C@@]13[C@@]1(C)CCC4=C(COC4=O)C1=C[C@@H]1O[C@@]13C2=O` [LLDT-15, Δ^5,6-dehydrotriptonide]: the melting point was 242 to 244 °C (dec.). The “Lymphocyte Proliferation (cpm) B cell” value in data set [1] (10^−6 M) was determined as 30889 cpm. Moreover, the “Lymphocyte Proliferation (cpm) B cell” value in data set [1] (10^−7 M) stood at 85240 cpm. In addition, the “Lymphocyte Proliferation (cpm) B cell” value in data set [1] (10^−8 M) came to 77139 cpm. In addition, the “Cytotoxicity OD Value” in data set [2] (10^−6 M) worked out at 0.156. The “Cytotoxicity OD Value” in data set [2] (10^−7 M) was determined as 0.316. In addition, the “Cytotoxicity OD Value” in data set [2] (10^−8 M) was 0.327. The “Lymphocyte Proliferation (cpm) T cell” value in data set [3] (10^−6 M) came out at 10296 cpm. Further, in data set [3] (10^−7 M), the “Lymphocyte Proliferation (cpm) T cell” value is listed as 63914 cpm. Also, in data set [3] (10^−8 M), the “Lymphocyte Proliferation (cpm) T cell” value is 69613 cpm.
For the molecule `CC(C)C12OC1C1OC13C1(OC1C(O)C1(O)C4=C(CCC13C)C(=O)OC4)C2O` [LLDT-23, cis-(5R, 6S)-5,6-dihydroxy-14-epitriptolide], the “Lymphocyte Proliferation (cpm) B cell” value in data set [1] (10^−6 M) is on record as 99672 cpm; in data set [1] (10^−7 M) it was 86481 cpm; in data set [1] (10^−8 M) it was 76993 cpm. The “Cytotoxicity OD Value” is 0.302 in data set [2] (10^−6 M), 0.349 in data set [2] (10^−7 M) and 0.366 in data set [2] (10^−8 M). The entries for the “Lymphocyte Proliferation (cpm) T cell” value in data set [3] (10^−6 M), in data set [3] (10^−7 M) and in data set [3] (10^−8 M) were 55614 cpm, 104791 cpm and 84713 cpm, respectively.
`CC(C)C12OC1C1OC13C1(OC1C1OC14C1=C(CCC43C)C(=O)OC1)C2O` [LLDT-20, (5R, 6S)-5,6-epoxytriptolide]: the entries for the “Lymphocyte Proliferation (cpm) B cell” value in data set [1] (10^−6 M), in data set [1] (10^−7 M) and in data set [1] (10^−8 M) were 63169 cpm, 85145 cpm and 78259 cpm, respectively. The “Cytotoxicity OD Value” is given as 0.263 in data set [2] (10^−6 M), 0.350 in data set [2] (10^−7 M) and 0.374 in data set [2] (10^−8 M). For the same molecule, the “Lymphocyte Proliferation (cpm) T cell” value in data set [3] (10^−6 M) is 25344 cpm; in data set [3] (10^−7 M), 54771 cpm; in data set [3] (10^−8 M), 69785 cpm.
Take `CC(C)C12OC1C1OC13C1(OC1C(O)C1(O)C4=C(CCC13C)C(=O)OC4)C2O` [LLDT-22, cis-(5R, 6S)-5,6-dihydroxytriptolide]: the “Lymphocyte Proliferation (cpm) B cell” value in data set [1] (10^−6 M) was found to be 16807 cpm; in data set [1] (10^−7 M), 89706 cpm; in data set [1] (10^−8 M) it was 84748 cpm. Also, the “Cytotoxicity OD Value” in data set [2] (10^−6 M) worked out at 0.157; in data set [2] (10^−7 M), 0.345; in data set [2] (10^−8 M), 0.374. Besides, the “Lymphocyte Proliferation (cpm) T cell” value stood at 2662 cpm in data set [3] (10^−6 M), 68787 cpm in data set [3] (10^−7 M) and 64367 cpm in data set [3] (10^−8 M).
`O=P1(N(CCCl)CCCl)NCCCO1` (stereo not drawn) [CTX, reference compound]: in data set [4] (control 21.9), the “Body weight after i.p.” value is on record as 21.1 g. Besides, the “Body weight before i.p.” value in data set [4] (control 22.4) is reported as 22.1 g. The “Ear swelling X ± SD” value in data set [4] (control 22.7 ± 2.1) was 15.6 ± 8.1 mg. Also, in data set [4] (control 26.4), the Right ear is reported as 30.3 mg. In addition, the Left ear in data set [4] (control 49.1) is 45.9 mg. Further, the Spleen worked out at 141.2 mg in data set [4] (control 154.0) and 50.7 mg/10 g in data set [5] (control 55.7). Moreover, in data set [5] (control 0.38), the “QHS OD value” is on record as 0.12. In data set [5] (control 7.9), this molecule came in with a C3 of 7.5 μg/10 μl. This molecule came in with a Body weight in data set [5] (control 23.4) of 22.6 g. Besides, the Thymus in data set [5] (control 28.8) is 28.2 mg. Further, the “Total IgG” value in data set [5] (control 117) is listed as 101 μg/10 μl.
`CC(C)[C@]12O[C@H]1[C@@H]1O[C@]13[C@]1(O[C@H]1C=C1C4=C(CC[C@@]13C)C(=O)OC4)[C@H]2O` [LLDT-19, Δ^5,6-dehydro-14-epitriptolide]: the “Lymphocyte Proliferation (cpm) B cell” value in data set [1] (10^−6 M) amounted to 82989 cpm; in data set [1] (10^−7 M), 70587 cpm; in data set [1] (10^−8 M) it was 69690 cpm. Besides, the “Cytotoxicity OD Value” in data set [2] (10^−6 M) is 0.340; in data set [2] (10^−7 M), 0.340; in data set [2] (10^−8 M) it was 0.346. For the same molecule, the entries for the “Lymphocyte Proliferation (cpm) T cell” value in data set [3] (10^−6 M), in data set [3] (10^−7 M) and in data set [3] (10^−8 M) were 79418 cpm, 71177 cpm and 76183 cpm, respectively.
On to `CC(C)[C@]12O[C@H]1[C@@H]1O[C@]13[C@]1(O[C@H]1[C@@H]1O[C@@]14C1=C(CC[C@]34C)C(=O)OC1)[C@H]2O` [LLDT-21, (5R, 6S)-5,6-epoxy-14-epitriptolide], for which the “Lymphocyte Proliferation (cpm) B cell” value is given as 86610 cpm in data set [1] (10^−6 M), 75766 cpm in data set [1] (10^−7 M) and 76181 cpm in data set [1] (10^−8 M). Besides, the “Cytotoxicity OD Value” in data set [2] (10^−6 M) worked out at 0.361; in data set [2] (10^−7 M), 0.332; in data set [2] (10^−8 M), 0.359. In addition, the “Lymphocyte Proliferation (cpm) T cell” value in data set [3] (10^−6 M) was 97217 cpm; in data set [3] (10^−7 M) it was 73513 cpm; in data set [3] (10^−8 M), 83465 cpm.
